Source: patent US10046050B2, “Targeting immunotherapy for amyloidosis” (UNIVERSITY OF TENNESSEE RESEARCH FOUNDATION, priority 2014, dated 2018)
Read-outs that look alike come from different tables or passages of the source.

How the values were obtained:
mAb 7D8 = experiment: Surface plasmon resonance of mAb 7D8 binding to amino-coupled peptopes; conditions: 7D8 2.7 nM; for Kd: read-out: KD
Procedure: Analyses were performed using a BIAcore X surface plasmon resonance instrument (GE Healthcare) and all reagents were obtained from GE Healthcare. For chip preparation, the peptides were attached to CM-5 chips using the amino-coupling method supplied with the instrument software. Briefly, chips were activated by injection (35 μL) of a mixture of ECD/NHS at a flow rate of 5 μL/min. Immediately thereafter, 35 μL of the test peptide (peptope p75, p76, p77, or p78), diluted to 1 μg/mL in NaOAc buffer, pH 5.5, was injected. After peptide coupling, the remaining active groups on the chip were blocked by injection of 35 μL of 1 M ethanolamine-HCl pH 8.5. Test peptides p75, p76, p77, or p78 were coupled to the Fc-1 channel and peptide p5, which served as a control, was coupled to the Fc-2 channel. A sensorgram was initiated on each chip in HBS-EP buffer at 10 μL per min. An initial regeneration step consisting of a 20 μL injection of pH 2.5 glycine buffer was performed and the baseline allowed to equilibrate. Antibody 7D8 was diluted to a stock of 10 μg/mL in HBS-EP buffer which was further diluted to a 0.4 μg/mL (˜2.7 nM) working dilution immediately before injection. The antibody was injected (50 μL) and the data collected for 200 seconds using a delayed wash cycle. The chip was subjected to a regeneration step before the next test injection. Binding data were extracted from the sensorgram, aligned, and analyzed using the BIAevaluation software by fitting to the following binding models (i) Langmuir, (ii) Langmuir with mass transfer, and (iii) Interaction of a bivalent analyte [A+B→AB; AB+B→AB2].

[1] = tested on: mAb clones 4, 5, 12, and 13; experiment: ELISA capture of negative control biotinylated peptides by plate-adsorbed mAb clones; type: binding, murine; conditions: 100 ng/well
Procedure: More particularly, 96-well ELISA microplates were coated overnight with the indicated mAbs (500 ng/well), the wells were blocked with PBS/BSA solution before addition of biotinylated p5+14 peptide (100 ng/well). Biotinylated peptides, p5R and p31G (aka p5G) were used as a negative control. Following a wash step, detection of captured peptide was achieved by addition of europium-conjugated streptavidin as described above.

Substance | Rmax (RU) (mAb 7D8; Bivalent Analyte) | ka1 (mAb 7D8; Bivalent Analyte) | ka2 (1/RUs) (mAb 7D8; Bivalent Analyte) | kd1 (mAb 7D8; Bivalent Analyte) | kd2 (mAb 7D8; Bivalent Analyte) | KA (mAb 7D8; Langmuir with Mass Transfer) | Req (RU) (mAb 7D8; Langmuir with Mass Transfer) | Rmax (RU) (mAb 7D8; Langmuir with Mass Transfer) | ka (mAb 7D8; Langmuir with Mass Transfer) | kd (mAb 7D8; Langmuir with Mass Transfer) | kobs (mAb 7D8; Langmuir with Mass Transfer) | kt (RU/(M*s)) (mAb 7D8; Langmuir with Mass Transfer) | Kd (mAb 7D8; Langmuir with Mass Transfer) | KA (mAb 7D8; Langmuir) | Req (RU) (mAb 7D8; Langmuir) | Rmax (RU) (mAb 7D8; Langmuir) | ka (mAb 7D8; Langmuir) | kd (mAb 7D8; Langmuir) | kobs (mAb 7D8; Langmuir) | Kd (mAb 7D8; Langmuir) | further results
KAQKAQAKQAKQAQKAQKAQAKQAKQVTVHEDT [p78, KAQKAQAKQAKQAQKAQKAQAKQAKQVTVHEDT] | 9.16E+03 RU | 63700 M⁻¹ s⁻¹ | 1.10E−07 1/RUs | 0.00972 s⁻¹ | 2.63e-05 s⁻¹ | 6.85e+08 M⁻¹ | 326 RU | 502 RU | 1.29e+07 M⁻¹ s⁻¹ | 0.0188 s⁻¹ | 0.0536 s⁻¹ | 1.65E+09 RU/(M*s) | 1.46 nM | 4.05e+08 M⁻¹ | 331 RU | 633 RU | 2.42e+06 M⁻¹ s⁻¹ | 0.00598 s⁻¹ | 0.0125 s⁻¹ | 2.47 nM | 
KAQKAQAKQAKQAQKAQKAQAKQAKQGGGHEDT [p76, KAQKAQAKQAKQAQKAQKAQAKQAKQGGGHEDT] | 861 RU | 609000 M⁻¹ s⁻¹ | 2.38E−03 1/RUs | 0.0736 s⁻¹ | 0.0774 s⁻¹ | 6.33e+08 M⁻¹ | 191 RU | 302 RU | 8.96e+06 M⁻¹ s⁻¹ | 0.0137 s⁻¹ | 0.0372 s⁻¹ | 1.43E+09 RU/(M*s) | 1.58 nM | 4.43e+08 M⁻¹ | 191 RU | 351 RU | 2.95e+06 M⁻¹ s⁻¹ | 0.00667 s⁻¹ | 0.0146 s⁻¹ | 2.26 nM | 
RAQRAQARQARQAQRAQRAQARQARQ (RAQRAQARQARQAQRAQRAQARQARQ; Peptide p5R) |  |  |  |  |  |  |  |  |  |  |  |  |  |  |  |  |  |  |  |  | capture of biotinylated peptide by adsorbed mAb clones [1]: not captured
KAQKAQAKQAKQAQKAQKAQAKQAKQGPGHEDT [p77, KAQKAQAKQAKQAQKAQKAQAKQAKQGPGHEDT] | 5.43E+03 RU | 44600 M⁻¹ s⁻¹ | 3.76E−05 1/RUs | 0.0295 s⁻¹ | 0.0224 s⁻¹ | 3e+08 M⁻¹ | 192 RU | 429 RU | 1.96e+08 M⁻¹ s⁻¹ | 0.653 s⁻¹ | 1.18 s⁻¹ | 4.57E+08 RU/(M*s) | 3.33 nM | 1.04e+07 M⁻¹ | 223 RU | 8.16E+03 RU | 51900 M⁻¹ s⁻¹ | 0.00498 s⁻¹ | 0.00512 s⁻¹ | 96 nM | 
GAQGAQAGQAGQAQGAQGAQAGQAGQ (GAQGAQAGQAGQAQGAQGAQAGQAGQ; Peptide p5G) |  |  |  |  |  |  |  |  |  |  |  |  |  |  |  |  |  |  |  |  | capture of biotinylated peptide by adsorbed mAb clones [1]: not captured
